From ChEMBL document CHEMBL1131880, “Synthesis and in vitro cytotoxicity of hexacyclic camptothecin analogues” (Bioorg Med Chem Lett, 1999) come the findings set out here.

Assay type in all cases: functional, cell-based
Assay [1] deals with Caov-3 cell line. Description: In vitro cytotoxicity against human tumor cell line CAOV-3.
Assay [2] has as its system HEC-1B cell line. Description: In vitro cytotoxicity against human tumor cell line HEC-1-B.
For assay [3], the system named is A549. Description: In vitro cytotoxicity against human tumor cell line A549.
Assay [4] deals with KATO III stomach cancer cell line. Description: In vitro cytotoxicity against human tumor cell line KATO-III.
Assay [5] relates to DLD-1. The assay can be described thus: In vitro cytotoxicity against human tumor cell line DLD-1.

The structures appear in SMILES notation.

In the case of `CCCCNCCc1c2c(nc3cc4c(cc13)OCCO4)-c1cc3c(c(=O)n1C2)COC(=O)C3(O)CC` (stereo not drawn), the half-inhibitory concentration (IC50) in assay [1] worked out at 7120 nM; in assay [2], 3650 nM.
As for `CCNCCc1c2c(nc3cc4c(cc13)OCO4)-c1cc3c(c(=O)n1C2)COC(=O)C3(O)CC` (stereo not drawn), the half-maximal inhibitory concentration (IC50) in assay [1] was determined as 33000 nM; in assay [2] it was 6060 nM; in assay [3], 0.094 nM; in assay [4], 2.9 nM.
In the case of `CCCNCCc1c2c(nc3cc4c(cc13)OCO4)-c1cc3c(c(=O)n1C2)COC(=O)C3(O)CC` (stereo not drawn), the IC50 in assay [1] was 63000 nM; in assay [2], 2110 nM; in assay [3] it was 0.11 nM; in assay [5], 26 nM.
Turning to `CCC1(O)C(=O)OCc2c1cc1n(c2=O)Cc2c-1nc1cc3c(cc1c2CCNC(C)C)OCCO3` (stereo not drawn), the IC50 in assay [1] was found to be 2320 nM; in assay [2], 12800 nM.
As to `CCC1(O)C(=O)OCc2c1cc1n(c2=O)Cc2c-1nc1cc3c(cc1c2CCNCC(C)C)OCCO3` (stereo not drawn), the half-maximal inhibitory concentration (IC50) in assay [1] came to 7120 nM; in assay [2] it was 3650 nM.
The like results for `CCCCNCCc1c2c(nc3cc4c(cc13)OCO4)-c1cc3c(c(=O)n1C2)COC(=O)C3(O)CC` (stereo not drawn) were, in that order, 62000 nM and 4680 nM.
In the case of `CCC(C)NCCc1c2c(nc3cc4c(cc13)OCCO4)-c1cc3c(c(=O)n1C2)COC(=O)C3(O)CC` (stereo not drawn), the 50% inhibitory concentration (IC50) stood at 2000 nM in assay [1] and 3290 nM in assay [2].
For `CCC(C)NCCc1c2c(nc3cc4c(cc13)OCO4)-c1cc3c(c(=O)n1C2)COC(=O)C3(O)CC` (stereo not drawn), the half-inhibitory concentration (IC50) in assay [1] worked out at 1510 nM; in assay [2], 14800 nM.
As to `CCC(C)CNCCc1c2c(nc3cc4c(cc13)OCO4)-c1cc3c(c(=O)n1C2)COC(=O)C3(O)CC` (stereo not drawn), the IC50 was 6570 nM in assay [1] and 2710 nM in assay [2].
As to `CCCNCCc1c2c(nc3cc4c(cc13)OCCO4)-c1cc3c(c(=O)n1C2)COC(=O)C3(O)CC` (stereo not drawn), the 50% inhibitory concentration (IC50) in assay [1] and in assay [2] was over 100000 nM in each case.
Regarding `CCC1(O)C(=O)OCc2c1cc1n(c2=O)Cc2c-1nc1ccccc1c2CCNC(C)C` (stereo not drawn), the values for the IC50 in assay [3], in assay [4] and in assay [5] were 0.26 nM, 1.6 nM and 7.3 nM, respectively.
On to `CCC1(O)C(=O)OCc2c1cc1n(c2=O)Cc2c-1nc1cc3c(cc1c2CCNCC(C)C)OCO3` (stereo not drawn), for which the IC50 is 21900 nM in assay [1] and 10000 nM in assay [2].
`CCNCCc1c2c(nc3cc4c(cc13)OCCO4)-c1cc3c(c(=O)n1C2)COC(=O)C3(O)CC` (stereo not drawn): the IC50 is 190 nM in assay [2] and 0.5 nM in assay [3].
As to `CCC1(O)C(=O)OCc2c1cc1n(c2=O)Cc2c-1nc1cc3c(cc1c2CCNC(C)C)OCO3` (stereo not drawn), the IC50 in assay [2] worked out at 670 nM; in assay [4] it was 45 nM; in assay [5], 8.9 nM.
On to `CCN(CC)CCNCCc1c2c(nc3cc4c(cc13)OCCO4)-c1cc3c(c(=O)n1C2)COC(=O)C3(O)CC` (stereo not drawn), for which the half-maximal inhibitory concentration (IC50) in assay [1] is over 100000 nM; in assay [2], 12100 nM.
The like results for `CCC(C)CNCCc1c2c(nc3cc4c(cc13)OCCO4)-c1cc3c(c(=O)n1C2)COC(=O)C3(O)CC` (stereo not drawn) were, in that order, 3500 nM and 3440 nM.
For `CC[C@@]1(O)C(=O)OCc2c1cc1n(c2=O)Cc2cc3ccccc3nc2-1` [CAMPTOTHECIN], the concentration for half-maximal inhibition (IC50) in assay [1] was determined as 2.9 nM; in assay [2] it was 60 nM; in assay [3] it was 0.33 nM; in assay [4] it was 46 nM; in assay [5], 14 nM.

Broadly, the IC50 is the concentration needed to halve the response being measured.
